Measured values reported in patent US8410105B2, “Pyridazinyl amine derivatives, the use thereof in the preparation of picorna virus inhibitors” (Institute of Pharmacology and Toxicology Academy of …, priority 2005, dated 2013).

Key:
Rhinovirus-3(HRV-3) [1] = assay: Preventive administration: drug pre-mixed with virus, protection of HeLa cells from CPE; format: cell-based; conditions: drug 100 ng/ml, virus about 100 TCID50, 33° C., three days, FIG. 1
Method: (§1) HeLa cells (self-preserved in the laboratory)
(§2) Rhinovirus-3(HRV-3) (ATCC: VR-1113)
Principle: the drug and the virus were pre-mixed and incubated to block the procedure of viral uncoating and invasion into cells.
Methods: the drug at a concentration of 100 ng/ml was placed into a 12-well plate, then viral dose at TCID50 value of about 100 was added, after 0.5 h, 500,000 cells were added into each well, and incubated at 33° C. After three days, when the control group presented 100% cytopathic effect (CPE), the effects of the drug for preventing cells from being phagocytized were observed, and expressed as cell protection rate (%).

rhinovirus = assay: Ex vivo anti-rhinovirus screening: ACh-induced tension of rabbit tracheal rings exposed to rhinovirus; conditions: for Tension, average: drug 100 μg/ml plus rhinovirus, rabbit tracheal rings
Rhinovirus-3(HRV-3) [2] = assay: Therapeutic administration: drug added after viral infection of adherent HeLa cells, protection from CPE; format: cell-based; conditions: drug 100 ng/ml added 0.5 h after virus (about 100 TCID50), 33° C., three days, FIG. 2
Method: as §1, §2
Method: 500,000 cells were added into each well, incubated at 33° C. overnight for adherence, then viral dose at TCID50 value of about 100 was added, the culture medium was removed by absorption after 0.5 h, the drug was added into a 12-well plate at a concentration of 100 ng/ml, the total volume of the reaction system was 2 ml. After three days, when the virus control group presented 100% cytophagocytesis (CPE), the effects of the drug for preventing cells from being phagocytized were observed.

Compound: 4-{2-[4-(3,6-dichloropyridazin-4-yl)-piperazin]-1-yl)-ethoxy]-benzoic acid isopropyl ester [Example 13]
- effects of the drug for preventing cells from being phagocytized, cell protection rate (Rhinovirus-3(HRV-3) [1]): better effects

Compound: Cc1cccc(C)c1OCCN1CCN(c2cc(Cl)nnc2Cl)CC1 [Example 4, 3,6-dichloro-4-{4-[2-(2,6-dimethyl-phenoxyethyl)]-piperazin-1-yl}pyridazine]
- effects of the drug for preventing cells from being phagocytized, cell protection rate (Rhinovirus-3(HRV-3) [1]): better effects

Compound: CCOC(=O)c1ccc(OCCN2CCN(c3cc(Cl)nnc3Cl)CC2)nc1 [Example 31, 6-{2-[4-(3,6-dichloro-pyridazin-4-yl)-piperazin-1-yl]-ethoxy}-nicotinic acid ethyl ester]
- effects of the drug for preventing cells from being phagocytized, cell protection rate (Rhinovirus-3(HRV-3) [1]): better effects
- Tension, average (rhinovirus; Ach concentration (log M) −3): 1.95 g
- Tension, average (rhinovirus; Ach concentration (log M) −3.7): 1.86 g
- Tension, average (rhinovirus; Ach concentration (log M) −4): 1.72 g
- Tension, average (rhinovirus; Ach concentration (log M) −4.3): 1.54 g
- Tension, average (rhinovirus; Ach concentration (log M) −4.7): 1.30 g
- Tension, average (rhinovirus; Ach concentration (log M) −5): 1.00 g
- Tension, average (rhinovirus; Ach concentration (log M) −5.3): 0.73 g
- Tension, average (rhinovirus; Ach concentration (log M) −5.7): 0.35 g
- Tension, average (rhinovirus; Ach concentration (log M) −6): 0.11 g
- Tension, average (rhinovirus; Ach concentration (log M) −7): 0.00 g
- effect on the rhinovirus-caused excessive increase of Ach-induced tracheal smooth muscular tension (rhinovirus; drug 100 μg/ml, FIG. 3): obviously inhibit the excessive increase of Ach-induced tracheal smooth muscular tension caused by rhinovirus
- effects of the drug for preventing cells from being phagocytized (Rhinovirus-3(HRV-3) [2]): better effects

Compound: COC(=O)c1ccc(OCCN2CCN(c3cc(Cl)nnc3Cl)CC2)nc1 [Example 32, 6-{2-[4-(3,6-dichloropyridazin-4-yl)piperazin-1-yl]-ethoxy}-nicotinic acid methyl ester]
- effects of the drug for preventing cells from being phagocytized, cell protection rate (Rhinovirus-3(HRV-3) [1]): better effects
